The values that follow come from patent publication US5436254A, “Carbostyril derivatives” (Otsuka Pharmaceutical Company, Ltd., priority 1989, dated 1995).

The structures appear in SMILES notation. Like-named read-outs stand apart in the source and are kept apart here.

The target in the assay is V1 receptor (Rattus norvegicus, UniProt P30560). Briefly: biochemical. Format: binding.
V1 receptor, sequence (P30560 whole entry): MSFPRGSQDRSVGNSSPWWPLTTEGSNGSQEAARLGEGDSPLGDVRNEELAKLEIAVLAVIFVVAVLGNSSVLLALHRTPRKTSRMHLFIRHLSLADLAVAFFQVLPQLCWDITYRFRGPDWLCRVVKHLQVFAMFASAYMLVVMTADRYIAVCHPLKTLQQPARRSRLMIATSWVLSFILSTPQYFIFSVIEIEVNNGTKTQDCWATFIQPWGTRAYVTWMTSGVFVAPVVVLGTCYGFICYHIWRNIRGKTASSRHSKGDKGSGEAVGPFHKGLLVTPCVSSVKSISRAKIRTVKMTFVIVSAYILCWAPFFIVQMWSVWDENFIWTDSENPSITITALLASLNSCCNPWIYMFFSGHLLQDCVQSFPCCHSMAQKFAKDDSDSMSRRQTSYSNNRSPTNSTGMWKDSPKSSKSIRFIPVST

The compound `CN(CCc1ccccc1)CC(O)CCCCOc1ccc(C(=O)N2CCC(N3C(=O)CCc4ccccc43)CC2)cc1` (stereo not shown) [Example 203, 1-{1-[4-(5-Hydroxy-6-[N-(2-phenylethyl)-N-methylamino]hexyloxy)benzoyl]-4-piperidinyl)-3,4-dihydrocarbostyril] came in with an IC50 of 49 nM.
In turn, `CN(CCO)CC(O)CCCCOc1ccc(C(=O)N2CCC(N3C(=O)CCc4ccccc43)CC2)cc1` (stereo not shown) [Example 204, 1-{1-[4-(5-Hydroxy-6-[N-(2-hydroxyethyl)-N-methylamino]hexyloxy)benzoyl]-4-piperidinyl}-3,4-dihydrocarbostyril] returned an IC50 of 59 nM.
As for `O=C(c1ccc(OCCCCC(O)CN2CCN(c3ccccc3)CC2)cc1)N1CCC(N2C(=O)CCc3ccccc32)CC1` (stereo not shown) [Example 205, 1-{1-[4-(5-Hydroxy-6-(4-phenyl-1-piperazinyl)hexyloxy)benzoyl]-4-piperidinyl}-3,4-dihydrocarbostyril], the IC50 came to 120 nM.
The compound `O=C(c1ccc(OCCCCCCC(O)CN2CCCC2)cc1)N1CCC(N2C(=O)CCc3ccccc32)CC1` (stereo not shown) [Example 206, 1-(1-[4-(7-Hydroxy-8-(1-pyrrolidinyl)octyloxy)benzoyl]-4-piperidinyl)-3,4-dihydrocarbostyril] gave an IC50 of 30 nM.
As to `CSCCC(NC(C)=O)C(=O)NCCCOc1ccc(C(=O)N2CCC(N3C(=O)CCc4ccccc43)CC2)cc1` (stereo not shown) [Example 207, 1-(1-[4-(3-(2-Acetylamino-4-methylthiobutyrylamino)propoxy)benzoyl]-4-piperidinyl}-3,4-dihydrocarbostyril], the IC50 came to 70 nM.
`CC(=O)N[C@H](Cc1c[nH]cn1)C(=O)NCCCOc1ccc(C(=O)N2CCC(N3C(=O)CCc4ccccc43)CC2)cc1` [Example 208, 1-{1-[4-(3-[2-(R)-Acetylamino-2-(4(1H)-imidazolyl)methylacetylamino]propoxy)benzoyl]-4-piperidinyl}-3,4-dihydrocarbostyril] showed an IC50 of 100 nM.
Compound `O=C(CCCCCOc1ccc(C(=O)N2CCC(N3C(=O)CCc4ccccc43)CC2)cc1)NC1CCNCC1` [Example 210, 1-{1-[4-(5-(4-Piperidinyl)aminocarbonylpentyloxy)benzoyl]-4-piperidinyl}-3,4-dihydrocarbostyril] had a 50% inhibitory concentration (IC50) of 23 nM.
In turn, `NC(=O)OCCCCCCOc1ccc(C(=O)N2CCC(N3C(=O)CCc4ccccc43)CC2)cc1` [Example 212, 1-{1-[4-(6-Carbamoyloxyhexyloxy)benzoyl]-4-piperidinyl}-3,4-dihydrocarbostyril] came in with an IC50 of 160 nM.
`CCN(CC)CCCCCCOc1ccc(C(=O)N2CCC(N3C(=O)CCc4ccccc43)CC2)cc1` [Example 213, 1-{1-[4-(6-Diethylaminohexyloxy)benzoyl]-4-piperidinyl}-3,4-dihydrocarbostyril] came in with an IC50 of 59 nM.
In turn, `O=C(c1ccc(OCCCCCCN2CCCC2)cc1)N1CCC(N2C(=O)CCc3ccccc32)CC1` [Example 214, 1-{1-[4-(6-(1-Pyrrolidinyl)hexyloxy)benzoyl]-4-piperidinyl}-3,4-dihydrocarbostyril.] came in with an IC50 of 58 nM.
For the compound `CCOc1ccc(C(=O)N2CCC(N3C(=O)CCc4c(C)cccc43)CC2)c(OC)c1` [Example 216, 5-Methyl-1-[1-(2-methoxy-4-ethoxybenzoyl)-4-piperidinyl]-3,4-dihydrocarbostyril], the IC50 was found to be 41 nM.
The same measure, in the same setting: the figure for `CC(C)NCC(O)CCCCOc1ccc(C(=O)N2CCC(N3C(=O)CCc4ccccc43)CC2)cc1` (stereo not shown) [Example 217, 1-{1-[4-(5-Hydroxy-6-isopropylaminohexyloxy)benzoyl]-4-piperidinyl}-3,4-dihydrocarbostyril] is 53 nM.
As for `CCN(CC(O)CCCCOc1ccc(C(=O)N2CCC(N3C(=O)CCc4ccccc43)CC2)cc1)CC1CCCCO1` (stereo not shown) [Example 218, 1-{1-[4-(5-Hydroxy-6-[N-ethyl-N-(2-tetrahydropyranylmethyl)amino]hexyloxy)benzoyl]-4-piperidinyl}-3,4-dihydrocarbostyril], the IC50 was 44 nM.
`CN(CC(O)CCCCOc1ccc(C(=O)N2CCC(N3C(=O)CCc4ccccc43)CC2)cc1)CC(O)c1ccccc1` (stereo not shown) [Example 219, 1-{1-[4-(5-Hydroxy-6-[N-methyl-N-(2-hydroxy-4-phenylethyl)amino]hexyloxy)benzoyl]-4-piperidinyl}-3,4-dihydrocarbostyril] showed an IC50 ([H]3-Arg-vasopressin 2×10^-10 M, rat liver plasma membrane, 37° C., 10 minutes, pH 8.0) of 60 nM.
Regarding `O=C(c1ccc(OCCCCC(O)CN2CCC[C@H]2CO)cc1)N1CCC(N2C(=O)CCc3ccccc32)CC1` (stereo partly shown) [Example 220], the IC50 stood at 20 nM.
As for `O=C(NCCCC[C@H](NC(=O)OCc1ccccc1)C(=O)NCCCOc1ccc(C(=O)N2CCC(N3C(=O)CCc4ccccc43)CC2)cc1)OCc1ccccc1` [Example 222, 1-[1-{4-[3-(S)-{N,N'76434 -Di(benzyloxycarbonyl)lysyl)aminopropoxy]benzoyl}-4-piperidinyl]-3,4-dihydrocarbostyril], the IC50 was 650 nM.
Still for that read-out and setting: the figure for `N[C@@H](Cc1ccc(O)cc1)C(=O)NCCCOc1ccc(C(=O)N2CCC(N3C(=O)CCc4ccccc43)CC2)cc1` [Example 223, 1-[1-{4-[3-(S)-Tyrosylaminopropoxy]benzoyl}-4-piperidinyl]-3,4-dihydrocarbostyril] is 72 nM; for `O=C(NCCCOc1ccc(C(=O)N2CCC(N3C(=O)CCc4ccccc43)CC2)cc1)[C@@H]1CCCN1` [Example 224, 1-{1-[4-(3-(S)-Prolylaminopropoxy)benzoyl]-4-piperidinyl]-3,4-dihydrocarbostyril] it is 94 nM.
In turn, `CC(C)[C@@H](N)C(=O)NCCCOc1ccc(C(=O)N2CCC(N3C(=O)CCc4ccccc43)CC2)cc1` [Example 225, 1-[1-{4-(3-(R)-Valylaminopropoxy]benzoyl]-4-piperidinyl]-3,4-dihydrocarbostyril] yielded an IC50 of 99 nM.
Same read-out and setting: the result for `O=C(N[C@@H](CO)C(=O)NCCCOc1ccc(C(=O)N2CCC(N3C(=O)CCc4ccccc43)CC2)cc1)OCc1ccccc1` [Example 226, 1-[1-{4-(3-(S)-{N-(Benzyloxycarbonyl)seryl}aminopropoxy]benzoyl)-4-piperidinyl]-3,4-dihydrocarbostyril] reads 480 nM; that for `C=CCN1CCN(CCCCOc2ccc(C(=O)N3CCC(N4C(=O)CCc5ccccc54)CC3)cc2)CC1` [Example 227, 1-{1-(4-[4-(4-Allyl-1-piperazinyl)butoxy]benzoyl)-4-piperidinyl)-3,4-dihydrocarbostyril], 130 nM; that for `O=C(CCl)NCCCCOc1ccc(C(=O)N2CCC(N3C(=O)CCc4ccccc43)CC2)cc1` [Example 228, 1-{1-(4-[4-(2-Chloroacetylamino)butoxy]benzoyl)-4-piperidinyl)-3,4-dihydrocarbostyril], 200 nM.
Compound `CC(=O)OCC(=O)NCCCCCOc1ccc(C(=O)N2CCC(N3C(=O)CCc4ccccc43)CC2)cc1` [Example 229, 1-{1-(4-[5-(2-Acetoxyacetylamino)pentyloxy]benzoyl)-4-piperidinyl]-3,4-dihydrocarbostyril] displayed an IC50 of 200 nM.
Consider `O=C(CO)NCCCCCOc1ccc(C(=O)N2CCC(N3C(=O)CCc4ccccc43)CC2)cc1` [Example 230, 1-[1-(4-[5-(2-Hydroxyacetylamino)pentyloxy]benzoyl)-4-piperidinyl)-3,4-dihydrocarbostyril], for which 180 nM corresponded to half-maximal inhibition (IC50).
For `O=C(NCCCCOc1ccc(C(=O)N2CCC(N3C(=O)CCc4ccccc43)CC2)cc1)C1CCNCC1` [Example 231, 1-[1-(4-[4-(4-Piperidinylcarbonylamino)butoxy]benzoyl)-4-piperidinyl)-3,4-dihydrocarbostyril], half-maximal inhibition (IC50) required 41 nM.

Usually IC50 stands for the concentration that inhibits the measured activity by half. Read a low IC50 as greater potency in that assay.
